Series [1] relates to Human immunodeficiency virus 1. Nature of the series: microbe, parasite or virus in culture. The following applies: Human immunodeficiency virus 1, IIIB, MT4.
Description: Antiviral activity against HIV1 IIIB infected in MT-4 cells assessed as viral induced cytopathic effect by MTT assay
Series [2] in a line: Cytotoxicity against human MT4 cells assessed as reduction in cell viability by MTT assay. The format is toxicity, cell-based.
In series [3] the test system is Human immunodeficiency virus 1. Description: Antiviral activity against HIV1 NL4-3 infected in MT4 cells at 25 ng/ml. The series is classed as functional, organism-based.
In series [4] the target is Human immunodeficiency virus type 1 reverse transcriptase (Human immunodeficiency virus 1, UniProt Q72547). Description: Inhibition of wild type HIV-1 reverse transcriptase.
Series [5] is described as follows: Selectivity index, ratio of CC50 for human MT4 cells to EC50 for antiviral activity against HIV IIIB.
The subject of another series is MT4. Description: Cytotoxicity against human MT4 cells. The format is toxicity, cell-based.
Series [6] concerns Human immunodeficiency virus 1. Nature of the series: microbe, parasite or virus in culture. The following applies: Human immunodeficiency virus 1, RES056, MT4.
Description: (§1) Antiviral activity against HIV1 RES056 infected in MT-4 cells assessed as viral induced cytopathic effect by MTT assay
The subject of series [7] is Human immunodeficiency virus 1. Description: Antiviral activity against HIV1 NL4-3 infected in MT4 cells. The series is classed as functional, organism-based. The following applies: Human immunodeficiency virus 1, NL4-3, MT4.
In series [8] the test system is Human immunodeficiency virus 1. To be noted: RES056, MT4.
Description: as §1
Series [9] concerns Human immunodeficiency virus 1. Description: Antiviral activity against HIV1 harboring F227L/V106A double mutant infected in MT4 cells. To be noted: Human immunodeficiency virus 1, MT4. The series is classed as functional, organism-based.
The nature of series [10]: Selectivity index, ratio of CC50 for human MT4 cells to EC50 for antiviral activity against HIV RES056.
The test system of series [11] is Human immunodeficiency virus 1. Description: Antiviral activity against HIV1 harboring Y188L mutant infected in MT4 cells. The format is functional, organism-based. To be noted: Human immunodeficiency virus 1, MT4.
In series [12] the test system is Human immunodeficiency virus 1. Nature of the series: Antiviral activity against HIV1 harboring Y181C mutant infected in MT4 cells. The series is classed as functional, organism-based. The following applies: Human immunodeficiency virus 1, MT4.
Series [13] has as its system Human immunodeficiency virus 1. Nature of the series: Antiviral activity against HIV1 harboring E138K mutant infected in MT4 cells. The format is functional, organism-based. To be noted: Human immunodeficiency virus 1, MT4.
Series [14] has as its system Human immunodeficiency virus 1. Nature of the series: Antiviral activity against HIV1 harboring L100I mutant infected in MT4 cells. The series is classed as functional, organism-based. The following applies: Human immunodeficiency virus 1, MT4.
Series [15] relates to Human immunodeficiency virus 1. Description: Antiviral activity against HIV1 harboring K103N mutant infected in MT4 cells. The following applies: Human immunodeficiency virus 1, MT4. The format is functional, organism-based.

Broadly, the EC50 is the midpoint of the concentration-response curve. The low end stands for higher potency in that assay, the high end for lower potency in that assay. Usually CC50 stands for the concentration that lowers cell viability or growth by half. In general, IC50 refers to the concentration needed to halve the response being measured. A higher IC50 goes with weaker potency.

The structures appear in SMILES notation. Activity calls are given as the source filed them. No cut-off for these calls is given here. A value given as a limit tells only on which side of the number the result lay.

As for `Cc1cc(C#N)cc(C)c1Oc1ccnc(Nc2ccc(N3CCN(S(=O)(=O)N(C)C)CC3)c(F)c2)n1`, the values for the EC50 in [1] and in series [6] were 18 nM and greater than 186000 nM, respectively. In addition, the 50% cytotoxic concentration (CC50) in [2] worked out at 186 µM. The result in series [3] was inactive. In series [4], this compound gave an IC50 of 150 nM. In series [5], the selectivity ratio is 10300. Also, the Activity result with MT4 is listed as “Non-Toxic”.

Turning to `Cc1cc(C#N)cc(C)c1Oc1ccnc(Nc2ccc(N3CCN(S(=O)(=O)N(C)C)CC3)cc2)n1`, the outcome in series [3] was inactive. Besides, the Activity entry in the series on MT4 is “Non-Toxic”.

Consider `Cc1cc(C#N)cc(C)c1Oc1ccnc(Nc2ccc(C3CCN(S(=O)(=O)C4CC4)CC3)cc2)n1`, for which the outcome in [3] was inactive. In addition, in the series with MT4, the Activity result was “Non-Toxic”.

Turning to `Cc1cc(C#N)cc(C)c1Oc1ccnc(Nc2ccc(N3CCN(S(C)(=O)=O)CC3)cc2)n1`, the result in series [3] was inactive. The Activity result in the series with MT4 is listed as “Non-Toxic”.

Regarding `Cc1cc(/C=C/C#N)cc(C)c1Oc1ccnc(Nc2ccc(N3CCN(S(=O)(=O)C4CC4)CC3)c(F)c2)n1`, the 50% effective concentration (EC50) was 5 nM in series [1] and 5.67 nM in series [7]. Further, the CC50 in series [2] is 170 µM. Further, 100 nM corresponded to half-maximal inhibition in [4] (IC50). Further, in [5], the selectivity ratio is 32100. Further, the Activity entry with MT4 is reported as “Non-Toxic”. In addition, the outcome in [8] was inactive.

Consider `Cc1cc(/C=C/C#N)cc(C)c1Oc1ccnc(Nc2ccc(N3CCN(S(C)(=O)=O)CC3)c(F)c2)n1`, for which the concentration for a half-maximal effect (EC50) in series [9] is 34 nM; in series [1], 2 nM; in [11] it was greater than 3.21 µM; in series [7], 0.48 nM; in series [12] it was 30 nM; in [13], 11 nM. For the same compound, the EC50 in [14] stood at 22 nM; in series [15], 3 nM; in series [6], 670 nM. Besides, the CC50 in series [2] turned out to be 3.21 µM. Further, the results for the selectivity ratio in series [10] and in [5] were 5 and 1710, respectively. In series [4], this compound returned a half-inhibitory concentration (IC50) of 40 nM. The Activity entry in the series on MT4 was “Non-Toxic”.

Take `Cc1cc(/C=C/C#N)cc(C)c1Oc1ccnc(Nc2ccc(C3CCN(S(C)(=O)=O)CC3)cc2)n1`: the concentration giving a half-maximal response (EC50) was 42 nM in series [9]; 4 nM in series [1]; greater than 4.3 µM in series [11]; 6.23 nM in [7]; 320 nM in series [12]; 30 nM in series [13]. The concentration for a half-maximal effect (EC50) is 92 nM in [14], 14 nM in series [15] and greater than 4300 nM in [6]. Besides, in series [2], the CC50 was 4.3 µM. Moreover, the selectivity ratio was less than 1 in series [10] and 1030 in [5]. In addition, the IC50 in [4] was 44 nM. For the same compound, the Activity result in the series with MT4 is recorded as “Non-Toxic”.

Turning to `CCS(=O)(=O)N1CCN(c2ccc(Nc3nccc(Oc4c(C)cc(/C=C/C#N)cc4C)n3)cc2F)CC1`, the EC50 was 36 nM in [9]; 3 nM in series [1]; greater than 111 µM in [11]; 1.64 nM in [7]; 30 nM in series [12]; 15 nM in [13]. Moreover, the half-maximal effective concentration (EC50) in [14] amounted to 21 nM; in [15], 4 nM; in series [6], 1730 nM. The CC50 in series [2] turned out to be 111 µM. Further, the selectivity ratio is 64 in series [10] and 37900 in series [5]. The IC50 in series [4] amounted to 54 nM. For the same compound, the Activity entry in the series on MT4 is listed as “Non-Toxic”.

With `Cc1cc(C#N)cc(C)c1Oc1ccnc(Nc2ccc(C3CCN(S(=O)(=O)N(C)C)CC3)cc2)n1`, the outcome in series [3] was inactive. Further, the Activity result with MT4 was “Non-Toxic”.

Turning to `CCS(=O)(=O)N1CCN(c2ccc(Nc3nccc(Oc4c(C)cc(C#N)cc4C)n3)cc2)CC1`, the outcome in [3] was inactive. In the series with MT4, the Activity entry is recorded as “Non-Toxic”.

On to `Cc1cc(C#N)cc(C)c1Oc1ccnc(Nc2ccc(N3CCN(S(=O)(=O)C(C)C)CC3)cc2)n1`, for which the result in series [3] was inactive. In the series with MT4, the Activity entry is listed as “Non-Toxic”.

As to `Cc1cc(C#N)cc(C)c1Oc1ccnc(Nc2ccc(N3CCN(S(=O)(=O)C4CC4)CC3)cc2)n1`, the outcome in series [3] was inactive. For the same compound, the Activity entry in the series with MT4 was “Non-Toxic”.

As for `Cc1cc(/C=C/C#N)cc(C)c1Oc1ccnc(Nc2ccc(N3CCN(S(=O)(=O)C(C)C)CC3)c(F)c2)n1`, the EC50 in series [9] is 100 nM; in series [1] it was 5 nM; in series [11], greater than 18.1 µM; in [7] it was 5.3 nM; in series [12], 94 nM; in series [13], 29 nM. The figures for the concentration for a half-maximal effect (EC50) in [14], in series [15] and in [6] were 42 nM, 7 nM and 5880 nM, respectively. Besides, the CC50 in series [2] was 18.1 µM. Besides, the selectivity ratio in series [10] was 3; in series [5], 3620. Inhibition in series [4] was half-maximal at 97 nM (IC50). Moreover, in the series with MT4, the Activity result is on record as “Non-Toxic”.

As to `Cc1cc(C#N)cc(C)c1Oc1ccnc(Nc2ccc(C3CCN(S(C)(=O)=O)CC3)cc2)n1`, the result in [3] was inactive. For the same compound, in the series on MT4, the Activity result is on record as “Non-Toxic”.

As for `Cc1cc(/C=C/C#N)cc(C)c1Oc1ccnc(Nc2ccc(N3CCN(S(C)(=O)=O)CC3)cc2)n1`, the EC50 in series [9] was 270 nM; in series [1], 5 nM; in series [11] it was greater than 2.57 µM; in series [7], 1.84 nM; in series [12], 960 nM; in series [13] it was 850 nM. Also, the EC50 is 370 nM in series [14], 37 nM in [15] and greater than 2570 nM in series [6]. Besides, the CC50 in [2] is 2.57 µM. For the same compound, the selectivity ratio is less than 1 in [10] and 536 in series [5]. Moreover, the midpoint of inhibition in series [4], the IC50, lay at 65 nM. In addition, in the series with MT4, the Activity entry is “Non-Toxic”.

In the case of `Cc1cc(C#N)cc(C)c1Oc1ccnc(Nc2ccc(C3CCN(S(=O)(=O)C(C)C)CC3)cc2)n1`, the result in series [3] was inactive. Further, in the series on MT4, the Activity entry is “Non-Toxic”.

With `CCS(=O)(=O)N1CCC(c2ccc(Nc3nccc(Oc4c(C)cc(C#N)cc4C)n3)cc2)CC1`, the result in series [3] was inactive. Moreover, the Activity result with MT4 is “Non-Toxic”.

The record behind these values is ChEMBL document CHEMBL5620408, “Discovery of novel diarypyrimidine derivatives bearing six-membered non-aromatic heterocycles as potent HIV-1 NNRTIs with improved anti-resistance and drug-like profiles” (Eur J Med Chem, 2023).
